Measured values as given in patent US20040029816A1, “Hepatoprotective activity of 10-O-P-hydroxybenzoyiaucubin” (priority 2002, published 2004).

Key:
[1] = test system: GalN induced hepatic injury; assay: Hepatoprotective activity (in vivo) against galactosamine (GalN) induced hepatic injury in rats
From the text: The hepatoprotective activity observed with 033 and 033(1) was 59.58 & 44.97, 56.62 & 44.05, 54.28 & 47.66, 57.71 & 66.66, 57.89 & 49.33 percent in serum GPT, GOT, Bilirubin, ALP, and TG respectively and 67.51 & 48.34, 66.56 & 55.13 percent in hepatic lipid peroxidation (LP) and GSH respectively. The same with silymarin was 57.38, 55.40, 60.00, 53.54,46.17, 69.59, 67.18 percent respectively (Table-2). [table]

[2] = test system: CCl4 induced hepatic injury; assay: Hepatoprotective activity (in vivo) against CCl4 induced hepatic injury in rats
From the text: Treatment of experimental animals with the 033 and 033(1) against CCU induced liver damage reduced the elevated levels of serum GPT, GOT, ALP, bilirubin, TG and hepatic lipid peroxidation and increased the GSH level.

[3] = liver, rats, fed p.o. at 48 h, 24 h, 2 h before and 6 h after GalN (300 mg/kg, s.c.), 033 400 mg/kg, 033 (1) and silymarin 50 mg/kg, mean of six animals
[4] = rats, fed p.o. at 48 h, 24 h, 2 h before and 6 h after GalN (300 mg/kg, s.c.), 033 400 mg/kg, 033 (1) and silymarin 50 mg/kg, mean of six animals
[5] = liver homogenate, rats, fed p.o. at 48 h, 24 h, 2 h before and 6 h after CCl4 (1 ml/kg, p.o.), 033 400 mg/kg, 033 (1) and silymarin 50 mg/kg, mean of six animals
[6] = rats, fed p.o. at 48 h, 24 h, 2 h before and 6 h after CCl4 (1 ml/kg, p.o.), 033 400 mg/kg, 033 (1) and silymarin 50 mg/kg, mean of six animals
[7] = rats, fed p.o. at 48 h, 24 h, 2 h before and 6 h after CCl4 (1 ml/kg, p.o.), 033 400 mg/kg, 033 (1) and silymarin 50 mg/kg, mean of six animals, listed as 033(1)

O=C(OCC1=C[C@@H](O)[C@@H]2C=CO[C@@H](O[C@@H]3O[C@H](CO)[C@@H](O)[C@H](O)[C@H]3O)[C@H]12)c1ccc(O)cc1 [033 (1), 10-O-p-hydroxybenzoylaucubin]
hepatoprotective activity (in words) ([1]; experimentally induced hepatic damage with galactosamine (GalN) in rats): marked hepatoprotective activity
Hepatoprotective activity, hepatic Glutathione (GSH) [1, 3]: 55.13%
Hepatoprotective activity, hepatic Lipid peroxidation (LP) [1, 3]: 48.34%
Hepatoprotective activity, serum ALP [1, 4]: 66.66%
Hepatoprotective activity, serum Bilirubin (mg %) [1, 4]: 47.66%
Hepatoprotective activity, serum GOT (Units) [1, 4]: 44.05%
Hepatoprotective activity, serum GPT (Units) [1, 4]: 44.97%
Hepatoprotective activity, serum Triglycerides (mg %) [1, 4]: 49.33%
hepatoprotective activity (in words) ([2]; experimentally induced hepatic damage with CCl4 in rats): marked hepatoprotective activity
Hepatoprotective activity, hepatic Glutathione (GSH) [2, 5]: 38.12%
Hepatoprotective activity, hepatic Lipid peroxidation (LP) [2, 5]: 41.48%
Hepatoprotective activity, serum ALP (table head: Al.F) [2, 6]: 60.2%
Hepatoprotective activity, serum Bilirubin (table head: Bihrubin (mg %)) [2, 6]: 71.79%
Hepatoprotective activity, serum GOT (Units) [2, 6]: 57.43%
Hepatoprotective activity, serum GPT (table head: OPT (Units)) [2, 6]: 59.52%
Hepatoprotective activity, serum Triglycerides (TG) [2, 6]: 38.53%
Hepatoprotective activity, serum ALP (table head: Al.F) [2, 7]: 60.17%
Hepatoprotective activity, serum GOT (Units) [2, 7]: 57.42%
